Species: Rattus norvegicus
Assay: DrugMatrix - Regimen: Daily Repeat
Type: toxicity, organism-based, Sprague-Dawley
Design: regimen Daily Repeat, gender Male, age 6-8 weeks
Conditions: in vivo, po, route oral GAVAGE, vehicle .5 % CMC; for ABSOLUTE BASOPHIL / ABSOLUTE EOSINOPHIL / ABSOLUTE LYMPHOCYTE / ABSOLUTE MONOCYTE / ABSOLUTE SEGMENTED NEUTROPHIL / BASOPHIL / EOSINOPHIL / ERYTHROCYTE COUNT / HEMATOCRIT / HEMOGLOBIN / LEUKOCYTE COUNT / LYMPHOCYTE / MEAN CORPUSCULAR HEMOGLOBIN / MEAN CORPUSCULAR HEMOGLOBIN CONCENTRATION / MEAN CORPUSCULAR VOLUME / MONOCYTE / NEUTROPHIL / NUCLEATED RED BLOOD CELLS / PLATELET COUNT: tissue Blood; for ALANINE AMINOTRANSFERASE / ALBUMIN / ALKALINE PHOSPHATASE / ASPARTATE AMINOTRANSFERASE / BLOOD UREA NITROGEN / CARBON DIOXIDE / CHLORIDE / CHOLESTEROL / CREATINE PHOSPHOKINASE / CREATININE / GLUCOSE / LACTATE DEHYDROGENASE / LIPASE / PHOSPHORUS / POTASSIUM / SODIUM / TOTAL BILIRUBIN / TOTAL PROTEIN / URIC ACID: tissue Plasma
[1] = 0 mg/kg, 72 h, dose level Control, time 3 day
[2] = 0 mg/kg, 120 h, dose level Control, time 5 day
[3] = 50 mg/kg, 72 h, dose level Low, time 3 day

Question: With `CNC(=C[N+](=O)[O-])NCCSCc1ccc(CN(C)C)o1` [RANITIDINE] as the compound, how does the “ABSOLUTE BASOPHIL” value [1] read?
Answer: 0 CELLS/uL

Question: What about the “ABSOLUTE EOSINOPHIL” value [1] of the same compound?
Answer: 0 CELLS/uL

Question: What about the “ABSOLUTE LYMPHOCYTE” value [1] of the same compound?
Answer: 12269.67 CELLS/uL

Question: And the “ABSOLUTE MONOCYTE” value [1]?
Answer: 160.33 CELLS/uL

Question: And the “ABSOLUTE SEGMENTED NEUTROPHIL” value [1]?
Answer: 970 CELLS/uL

Question: What about the BASOPHIL [1] of the same compound?
Answer: 0%

Question: What about the EOSINOPHIL [1] of the same compound?
Answer: 0%

Question: And the “ERYTHROCYTE COUNT” value [1]?
Answer: 5.76 x10E6/uL

Question: And the HEMATOCRIT [1]?
Answer: 36.57%

Question: And the HEMOGLOBIN [1]?
Answer: 14.22 G/DL

Question: What about the “LEUKOCYTE COUNT” value [1] of the same compound?
Answer: 13.4 x10E3/uL

Question: What about the LYMPHOCYTE [1] of the same compound?
Answer: 91.67%

Question: What about the “MEAN CORPUSCULAR HEMOGLOBIN” value [1] of the same compound?
Answer: 24.67 pg

Question: And the “MEAN CORPUSCULAR HEMOGLOBIN CONCENTRATION” value [1]?
Answer: 38.85 G/DL

Question: And the “MEAN CORPUSCULAR VOLUME” value [1]?
Answer: 63.52 fL

Question: What about the MONOCYTE [1] of the same compound?
Answer: 1.17%

Question: And the NEUTROPHIL [1]?
Answer: 7.17%

Question: And the “NUCLEATED RED BLOOD CELLS” value [1]?
Answer: 0.33 /100WBC

Question: And the “PLATELET COUNT” value [1]?
Answer: 1250.83 x10E3/uL

Question: And the “ALANINE AMINOTRANSFERASE” value [1]?
Answer: 49.17 u/L

Question: What about the ALBUMIN [1] of the same compound?
Answer: 4.33 G/DL

Question: And the “ALKALINE PHOSPHATASE” value [1]?
Answer: 378.5 u/L

Question: And the “ASPARTATE AMINOTRANSFERASE” value [1]?
Answer: 82.17 u/L

Question: And the “BLOOD UREA NITROGEN” value [1]?
Answer: 15 mg/dL

Question: What about the “CARBON DIOXIDE” value [1] of the same compound?
Answer: 34.33 mmol/L

Question: What about the CHLORIDE [1] of the same compound?
Answer: 99.17 MEQ/L

Question: What about the CHOLESTEROL [1] of the same compound?
Answer: 71.17 mg/dL

Question: What about the “CREATINE PHOSPHOKINASE” value [1] of the same compound?
Answer: 258.67 u/L

Question: And the CREATININE [1]?
Answer: 0.18 mg/dL

Question: And the GLUCOSE [1]?
Answer: 142.67 mg/dL

Question: What about the “LACTATE DEHYDROGENASE” value [1] of the same compound?
Answer: 154.33 u/L

Question: What about the LIPASE [1] of the same compound?
Answer: 9 u/L

Question: And the PHOSPHORUS [1]?
Answer: 11.67 mg/dL

Question: What about the POTASSIUM [1] of the same compound?
Answer: 7.13 MEQ/L

Question: And the SODIUM [1]?
Answer: 142.22 MEQ/L

Question: What about the “TOTAL BILIRUBIN” value [1] of the same compound?
Answer: 0.18 mg/dL

Question: And the “TOTAL PROTEIN” value [1]?
Answer: 5.77 G/DL

Question: And the “URIC ACID” value [1]?
Answer: 1.55 mg/dL

Question: What about the “ABSOLUTE BASOPHIL” value [2] of the same compound?
Answer: 0 CELLS/uL

Question: What about the “ABSOLUTE EOSINOPHIL” value [2] of the same compound?
Answer: 23.33 CELLS/uL

Question: What about the “ABSOLUTE LYMPHOCYTE” value [2] of the same compound?
Answer: 14943.67 CELLS/uL

Question: And the “ABSOLUTE MONOCYTE” value [2]?
Answer: 32 CELLS/uL

Question: What about the “ABSOLUTE SEGMENTED NEUTROPHIL” value [2] of the same compound?
Answer: 1084.33 CELLS/uL

Question: What about the BASOPHIL [2] of the same compound?
Answer: 0%

Question: And the EOSINOPHIL [2]?
Answer: 0.17%

Question: What about the “ERYTHROCYTE COUNT” value [2] of the same compound?
Answer: 5.71 x10E6/uL

Question: And the HEMATOCRIT [2]?
Answer: 35.28%

Question: What about the HEMOGLOBIN [2] of the same compound?
Answer: 14.27 G/DL

Question: And the “LEUKOCYTE COUNT” value [2]?
Answer: 16.08 x10E3/uL

Question: And the LYMPHOCYTE [2]?
Answer: 93%

Question: And the “MEAN CORPUSCULAR HEMOGLOBIN” value [2]?
Answer: 25.02 pg

Question: And the “MEAN CORPUSCULAR HEMOGLOBIN CONCENTRATION” value [2]?
Answer: 40.43 G/DL

Question: And the “MEAN CORPUSCULAR VOLUME” value [2]?
Answer: 61.82 fL

Question: What about the MONOCYTE [2] of the same compound?
Answer: 0.17%

Question: What about the NEUTROPHIL [2] of the same compound?
Answer: 6.67%

Question: What about the “NUCLEATED RED BLOOD CELLS” value [2] of the same compound?
Answer: 0.33 /100WBC

Question: And the “PLATELET COUNT” value [2]?
Answer: 1274 x10E3/uL

Question: And the “ALANINE AMINOTRANSFERASE” value [2]?
Answer: 54.17 u/L

Question: And the ALBUMIN [2]?
Answer: 4.22 G/DL

Question: And the “ALKALINE PHOSPHATASE” value [2]?
Answer: 373.17 u/L

Question: And the “ASPARTATE AMINOTRANSFERASE” value [2]?
Answer: 81.83 u/L

Question: And the “BLOOD UREA NITROGEN” value [2]?
Answer: 16.67 mg/dL

Question: And the “CARBON DIOXIDE” value [2]?
Answer: 30.33 mmol/L

Question: What about the CHLORIDE [2] of the same compound?
Answer: 99 MEQ/L

Question: What about the CHOLESTEROL [2] of the same compound?
Answer: 71 mg/dL

Question: And the “CREATINE PHOSPHOKINASE” value [2]?
Answer: 273.5 u/L

Question: And the CREATININE [2]?
Answer: 0.22 mg/dL

Question: And the GLUCOSE [2]?
Answer: 141.83 mg/dL

Question: What about the “LACTATE DEHYDROGENASE” value [2] of the same compound?
Answer: 153.67 u/L

Question: What about the LIPASE [2] of the same compound?
Answer: 10.33 u/L

Question: What about the PHOSPHORUS [2] of the same compound?
Answer: 11.38 mg/dL

Question: And the POTASSIUM [2]?
Answer: 7.08 MEQ/L

Question: What about the SODIUM [2] of the same compound?
Answer: 142.75 MEQ/L

Question: And the “TOTAL BILIRUBIN” value [2]?
Answer: 0.18 mg/dL

Question: And the “TOTAL PROTEIN” value [2]?
Answer: 6.1 G/DL

Question: And the “URIC ACID” value [2]?
Answer: 1.67 mg/dL

Question: And the “ABSOLUTE BASOPHIL” value [3]?
Answer: 0 CELLS/uL

Question: What about the “ABSOLUTE EOSINOPHIL” value [3] of the same compound?
Answer: 82.33 CELLS/uL

Question: What about the “ABSOLUTE LYMPHOCYTE” value [3] of the same compound?
Answer: 12453.33 CELLS/uL

Question: And the “ABSOLUTE MONOCYTE” value [3]?
Answer: 303 CELLS/uL

Question: And the “ABSOLUTE SEGMENTED NEUTROPHIL” value [3]?
Answer: 1061.33 CELLS/uL

Question: And the BASOPHIL [3]?
Answer: 0%

Question: What about the EOSINOPHIL [3] of the same compound?
Answer: 0.67%

Question: And the “ERYTHROCYTE COUNT” value [3]?
Answer: 5.58 x10E6/uL

Question: What about the HEMATOCRIT [3] of the same compound?
Answer: 36.1%

Question: What about the HEMOGLOBIN [3] of the same compound?
Answer: 14.47 G/DL

Question: And the “LEUKOCYTE COUNT” value [3]?
Answer: 13.9 x10E3/uL

Question: What about the LYMPHOCYTE [3] of the same compound?
Answer: 89.67%

Question: What about the “MEAN CORPUSCULAR HEMOGLOBIN” value [3] of the same compound?
Answer: 25.9 pg

Question: What about the “MEAN CORPUSCULAR HEMOGLOBIN CONCENTRATION” value [3] of the same compound?
Answer: 40.1 G/DL

Question: What about the “MEAN CORPUSCULAR VOLUME” value [3] of the same compound?
Answer: 64.73 fL

Question: What about the MONOCYTE [3] of the same compound?
Answer: 2%

Question: And the NEUTROPHIL [3]?
Answer: 7.67%

Question: And the “NUCLEATED RED BLOOD CELLS” value [3]?
Answer: 0.33 /100WBC

Question: And the “PLATELET COUNT” value [3]?
Answer: 1180.67 x10E3/uL

Question: And the “ALANINE AMINOTRANSFERASE” value [3]?
Answer: 50.67 u/L

Question: And the ALBUMIN [3]?
Answer: 4.17 G/DL

Question: And the “ALKALINE PHOSPHATASE” value [3]?
Answer: 358 u/L

Question: What about the “ASPARTATE AMINOTRANSFERASE” value [3] of the same compound?
Answer: 90.67 u/L

Question: What about the “BLOOD UREA NITROGEN” value [3] of the same compound?
Answer: 16.33 mg/dL

Question: And the “CARBON DIOXIDE” value [3]?
Answer: 27.33 mmol/L

Question: What about the CHLORIDE [3] of the same compound?
Answer: 101.33 MEQ/L

Question: What about the CHOLESTEROL [3] of the same compound?
Answer: 81.67 mg/dL

Question: What about the “CREATINE PHOSPHOKINASE” value [3] of the same compound?
Answer: 304 u/L

Question: And the CREATININE [3]?
Answer: 0.2 mg/dL

Question: And the GLUCOSE [3]?
Answer: 157.33 mg/dL

Question: What about the “LACTATE DEHYDROGENASE” value [3] of the same compound?
Answer: 312 u/L

Question: And the LIPASE [3]?
Answer: 10 u/L

Question: And the PHOSPHORUS [3]?
Answer: 15.03 mg/dL

Question: And the POTASSIUM [3]?
Answer: 7.11 MEQ/L

Question: And the SODIUM [3]?
Answer: 147.4 MEQ/L

Question: And the “TOTAL BILIRUBIN” value [3]?
Answer: 0.2 mg/dL

Question: And the “TOTAL PROTEIN” value [3]?
Answer: 5.83 G/DL

Question: What about the “URIC ACID” value [3] of the same compound?
Answer: 2.3 mg/dL
